The target of assay [1] is human PDHK2 (hPDHK2) (Homo sapiens (Human), UniProt Q15119). Kind of assay: Inhibitory action of PDHK2 activity in vitro (residual PDH activity after PDHK reaction). Format: biochemical. Conditions: for IC50: PDH/hPDHK2 complex solution, PDHK reaction at room temperature for 45 min, NADH absorbance at 340 nm, read-out: kPDK2 IC50. The method, boiled down:
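Indirect assay: FLAG-tagged hPDHK2 (0.5 μg/mL) precomplexed overnight at 4 °C with PDH (0.025 U/mL), then kinase reaction with compound and ATP 45 min at room temperature, pH 7.0 MOPS buffer. Residual PDH activity measured after 90 min with pyruvate, CoA, NAD, TPP as NADH absorbance at 340 nm, corrected for compound effect on PDH-only blank.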

The target of assay [2] is human PDHK1 (hPDHK1) (Homo sapiens (Human), UniProt Q15118). In words: Inhibitory action of PDHK1 activity in vitro (residual PDH activity after PDHK reaction). Conditions: for IC50: PDH/hPDHK1 complex solution, PDHK reaction at room temperature for 45 min, NADH absorbance at 340 nm, read-out: hPDK1 IC50; for inhibition at 0.003 µM: at 3 nmol/L, shown when IC50 value could not be calculated, read-out: hPDHK1 inhibitory rate at the lowest concentration of the test compound. It counts as biochemical. The method, boiled down:
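N-FLAG hPDHK1 (E. coli-expressed, 0.5 μg/mL) precomplexed overnight at 4 °C with porcine heart PDH (0.025 U/mL), then reacted 45 min at room temperature with compound and ATP (0.353 μmol/L as added) in MOPS pH 7.0 buffer. Residual PDH activity after 90 min with pyruvate, CoA, NAD, TPP read as NADH at 340 nm.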

Where only a bound is given, the exact number is not on record here.

Sequence of human PDHK1 (hPDHK1) (Q15118 29-436): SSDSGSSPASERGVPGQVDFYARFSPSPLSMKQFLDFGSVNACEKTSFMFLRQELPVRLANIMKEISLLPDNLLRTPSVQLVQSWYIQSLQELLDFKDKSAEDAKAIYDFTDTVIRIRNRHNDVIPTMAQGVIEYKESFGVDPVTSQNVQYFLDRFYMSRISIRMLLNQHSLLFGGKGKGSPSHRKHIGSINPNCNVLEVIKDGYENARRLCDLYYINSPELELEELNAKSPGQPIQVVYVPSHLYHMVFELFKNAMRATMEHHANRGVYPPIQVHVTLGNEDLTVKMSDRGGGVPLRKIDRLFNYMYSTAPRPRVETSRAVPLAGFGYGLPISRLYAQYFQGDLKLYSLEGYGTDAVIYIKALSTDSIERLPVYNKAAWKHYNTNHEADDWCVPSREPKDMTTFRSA

`C[C@H]1CN(C(=O)c2ccc(N3CCN(C)CC3)cc2)Cc2cnc([C@@](C)(O)C(F)(F)F)n21` [Example 93]: the half-maximal inhibitory concentration (IC50) in assay [1] is 11 nM; in assay [2] it was 8 nM.

Consider `C[C@H]1CN(C(=O)c2cnc(C3CC3)nc2)Cc2cnc([C@@](C)(O)C(F)(F)F)n21` [Example 94], for which the IC50 in assay [1] stood at 24 nM; in assay [2], 40 nM.

For `C[C@H]1CN(C(=O)c2ccnc(N3CCC(F)(F)CC3)c2)Cc2cnc([C@@](C)(O)C(F)(F)F)n21` [Example 95], the figures for the IC50 in assay [1] and in assay [2] were 15 nM and 6 nM, respectively.

On to `C[C@H]1CN(C(=O)c2ccnc(C3CC3)c2)Cc2cnc([C@@](C)(O)C(F)(F)F)n21` [Example 96], for which the IC50 in assay [1] and in assay [2] was 8 nM in each case.

For `C[C@H]1CN(C(=O)c2ncncc2-c2ccc(F)cc2)Cc2cnc([C@@](C)(O)C(F)(F)F)n21` [Example 97], the IC50 worked out at 26 nM in assay [1] and 63 nM in assay [2].

Turning to `C[C@H]1CN(C(=O)c2cc(C3CC3)nc(C(F)(F)F)c2)Cc2cnc([C@@](C)(O)C(F)(F)F)n21` [Example 98], the IC50 in assay [1] and in assay [2] was 6 nM each time.

Take `C[C@H]1CN(C(=O)c2cc3n(n2)CCO3)Cc2onc([C@@](C)(O)C(F)(F)F)c21` [Example 99]: the half-inhibitory concentration (IC50) was found to be 12 nM in assay [1] and 8 nM in assay [2].

For `C[C@H]1CN(C(=O)c2cc3n(n2)CCC3)Cc2onc([C@@](C)(O)C(F)(F)F)c21` [Example 100], the 50% inhibitory concentration (IC50) in assay [1] amounted to 5 nM; in assay [2], 4 nM.

As to `C[C@H]1CN(C(=O)c2n[nH]c3ccccc23)Cc2onc([C@@](C)(O)C(F)(F)F)c21` [Example 101], the IC50 in assay [1] was 4 nM; in assay [2], < 3 nM. The inhibition at 0.003 µM in assay [2] was 69%.

With `C[C@H]1CN(C(=O)c2cccc3[nH]ncc23)Cc2onc([C@@](C)(O)C(F)(F)F)c21` [Example 102], the concentration for half-maximal inhibition (IC50) in assay [1] and in assay [2] was 4 nM throughout.

Turning to `C[C@H]1CN(C(=O)c2n[nH]c3c2CCC(C)(C)C3)Cc2onc([C@@](C)(O)C(F)(F)F)c21` [Example 103], the half-maximal inhibitory concentration (IC50) in assay [1] is < 3 nM. Besides, the “hPDHK2 inhibitory rate at the lowest concentration of the test compound” value in assay [1] (lowest concentration of the test compound in the assay (<3 nmol/L), shown when IC50 value could not be calculated) is recorded as 66%. Moreover, in assay [2], the half-inhibitory concentration (IC50) was < 3 nM and the inhibition at 0.003 µM was 67%.

As to `C[C@H]1CN(C(=O)c2n[nH]c3ccc(F)cc23)Cc2onc([C@@](C)(O)C(F)(F)F)c21` [Example 104], the results for the IC50 in assay [1] and in assay [2] were 6 nM and 4 nM, respectively.

For the compound `C[C@H]1CN(C(=O)[C@H]2NCCc3ccccc32)Cc2onc([C@@](C)(O)C(F)(F)F)c21` [Example 105], the IC50 in assay [1] was found to be 8 nM; in assay [2], 9 nM.

On to `C[C@H]1CN(C(=O)[C@@H]2c3ccccc3CCN2C)Cc2onc([C@@](C)(O)C(F)(F)F)c21` [Example 106], for which, in assay [1], the concentration for half-maximal inhibition (IC50) amounted to 4 nM. In addition, in assay [2], the half-maximal inhibitory concentration (IC50) was < 3 nM and the inhibition at 0.003 µM is 61%.

Take `CC(=O)N1CCc2ccccc2[C@H]1C(=O)N1Cc2onc([C@@](C)(O)C(F)(F)F)c2[C@@H](C)C1` [Example 107]: the 50% inhibitory concentration (IC50) in assay [1] turned out to be 6 nM; in assay [2], 5 nM.

For the compound `C[C@H]1CN(C(=O)c2cc(C3CC3)nn2C)Cc2onc([C@@](C)(O)C(F)(F)F)c21` [Example 108], the results for the IC50 in assay [1] and in assay [2] were 6 nM and 5 nM, respectively.

Turning to `C[C@H]1CN(C(=O)c2ccnn2C2CC2)Cc2onc([C@@](C)(O)C(F)(F)F)c21` [Example 109], the half-inhibitory concentration (IC50) in assay [1] is 5 nM; in assay [2], < 3 nM. Further, in assay [2], the inhibition at 0.003 µM was 53%.

As for `C[C@H]1CN(C(=O)c2ccn(C3CC3)n2)Cc2onc([C@@](C)(O)C(F)(F)F)c21` [Example 110], the half-inhibitory concentration (IC50) in assay [1] was determined as 13 nM; in assay [2] it was 7 nM.

As for `C[C@H]1CN(C(=O)c2cc(C3CC3)n[nH]2)Cc2onc([C@@](C)(O)C(F)(F)F)c21` [Example 111, (3-cyclopropyl-1H-pyrazol-5-yl)((R)-4-methyl-3-((R)-1,1,1-trifluoro-2-hydroxypropan-2-yl)-4,7-dihydroisoxazolo[5,4-c]pyridin-6(5H)-yl)methanone], the IC50 in assay [1] worked out at 6 nM; in assay [2], 3 nM.

On to `C[C@H]1CN(C(=O)c2[nH]nc(C3CC3)c2Cl)Cc2onc([C@@](C)(O)C(F)(F)F)c21` [Example 112], for which the IC50 worked out at 5 nM in assay [1] and 3 nM in assay [2].

As to `C[C@H]1CN(C(=O)c2cc(C3CC3)n(C)n2)Cc2onc([C@@](C)(O)C(F)(F)F)c21` [Example 113], the concentration for half-maximal inhibition (IC50) in assay [1] worked out at 5 nM; in assay [2], 4 nM.

In the case of `C[C@H]1CN(C(=O)c2cc(C#N)nn2C2CC2)Cc2onc([C@@](C)(O)C(F)(F)F)c21` [Example 114], the concentration for half-maximal inhibition (IC50) in assay [1] was 7 nM; in assay [2], 5 nM.

For the compound `C[C@H]1CN(C(=O)c2nnc(C3CC3)o2)Cc2onc([C@@](C)(O)C(F)(F)F)c21` [Example 115], the IC50 in assay [1] was found to be 8 nM; in assay [2], 6 nM.

As to `C[C@H]1CN(C(=O)C(C)(C)c2ccc(C(=O)O)c(C3CC3)c2)Cc2onc([C@@](C)(O)C(F)(F)F)c21` [Example 116], the values for the concentration for half-maximal inhibition (IC50) in assay [1] and in assay [2] were 32 nM and 17 nM, respectively.

As to `C[C@H]1CN(C(=O)c2c(C#N)c(C3CC3)nn2C)Cc2onc([C@@](C)(O)C(F)(F)F)c21` [Example 117], the figures for the IC50 in assay [1] and in assay [2] were 8 nM and 6 nM, respectively.

Turning to `C[C@H]1CN(C(=O)c2cc(C3(C)CC3)nn2C)Cc2onc([C@@](C)(O)C(F)(F)F)c21` [Example 118], the IC50 in assay [1] and in assay [2] was 4 nM in each case.

Turning to `C[C@H]1CN(C(=O)c2cc(C3(C)CC3)n(C)n2)Cc2onc([C@@](C)(O)C(F)(F)F)c21` [Example 119], the IC50 was found to be 5 nM in assay [1] and 4 nM in assay [2].

As to `C[C@H]1CN(C(=O)C(C)(C)c2ccc(-c3nn[nH]n3)cc2)Cc2onc([C@@](C)(O)C(F)(F)F)c21` [Example 120], the IC50 in assay [1] was found to be 9 nM; in assay [2], 5 nM.

Consider `C[C@H]1CN(C(=O)c2cn(C)nc2C2CC2)Cc2onc([C@@](C)(O)C(F)(F)F)c21` [Example 121], for which the concentration for half-maximal inhibition (IC50) in assay [1] and in assay [2] was 5 nM throughout.

With `C[C@H]1CN(C(=O)c2cc(-c3ccccc3)nn2C)Cc2nnc([C@@](C)(O)C(F)(F)F)n21` [Example 122, ((S)-5-methyl-3-((R)-1,1,1-trifluoro-2-hydroxypropan-2-yl)-5,6-dihydro-[1,2,4]triazolo[4,3-a]pyrazin-7(8H)-yl)(1-methyl-3-phenyl-1H-pyrazol-5-yl)methanone], the IC50 worked out at 7 nM in assay [1] and 5 nM in assay [2].

For the compound `C[C@H]1CN(C(=O)c2cc(C3CC3)nn2C)Cc2nnc([C@@](C)(O)C(F)(F)F)n21` [Example 123], the IC50 in assay [1] was 12 nM; in assay [2] it was 6 nM.

The record behind these values is patent publication US10800784B2, “Nitrogen-containing heterocyclic amide compound and pharmaceutical use thereof” (Japan Tobacco Inc., priority 2018, dated 2020).
